For orientation: IC50 means the point on the concentration scale where inhibition reaches its midpoint.

The values below come from patent US10501449B2 (priority 2018, dated 2019).

The target in one data set is hERG channels (Homo sapiens (Human), UniProt Q12809). As to the kind of experiment: hERG Manual Patch Clamp Assay. Format: cell-based. Conditions: human, HEK 293 cells stably expressing hERG channels, pH 7.4, 1 uM, read-out: hERG EP % Inh @ 1 uM. (In general: hERG is a cardiac potassium channel; its block is linked to QT prolongation.)
The next data set concerns the target hROMK (human Kir1.1) (Homo sapiens (Human), UniProt P48048). As to the kind of experiment: cell-based. Conditions: CHO T-Rex hROMK stable cell line; thallium flux; 10-point concentration response curve; read-out: Human ROMK Th Flux IC50.

hERG channels, sequence (Q12809 whole entry): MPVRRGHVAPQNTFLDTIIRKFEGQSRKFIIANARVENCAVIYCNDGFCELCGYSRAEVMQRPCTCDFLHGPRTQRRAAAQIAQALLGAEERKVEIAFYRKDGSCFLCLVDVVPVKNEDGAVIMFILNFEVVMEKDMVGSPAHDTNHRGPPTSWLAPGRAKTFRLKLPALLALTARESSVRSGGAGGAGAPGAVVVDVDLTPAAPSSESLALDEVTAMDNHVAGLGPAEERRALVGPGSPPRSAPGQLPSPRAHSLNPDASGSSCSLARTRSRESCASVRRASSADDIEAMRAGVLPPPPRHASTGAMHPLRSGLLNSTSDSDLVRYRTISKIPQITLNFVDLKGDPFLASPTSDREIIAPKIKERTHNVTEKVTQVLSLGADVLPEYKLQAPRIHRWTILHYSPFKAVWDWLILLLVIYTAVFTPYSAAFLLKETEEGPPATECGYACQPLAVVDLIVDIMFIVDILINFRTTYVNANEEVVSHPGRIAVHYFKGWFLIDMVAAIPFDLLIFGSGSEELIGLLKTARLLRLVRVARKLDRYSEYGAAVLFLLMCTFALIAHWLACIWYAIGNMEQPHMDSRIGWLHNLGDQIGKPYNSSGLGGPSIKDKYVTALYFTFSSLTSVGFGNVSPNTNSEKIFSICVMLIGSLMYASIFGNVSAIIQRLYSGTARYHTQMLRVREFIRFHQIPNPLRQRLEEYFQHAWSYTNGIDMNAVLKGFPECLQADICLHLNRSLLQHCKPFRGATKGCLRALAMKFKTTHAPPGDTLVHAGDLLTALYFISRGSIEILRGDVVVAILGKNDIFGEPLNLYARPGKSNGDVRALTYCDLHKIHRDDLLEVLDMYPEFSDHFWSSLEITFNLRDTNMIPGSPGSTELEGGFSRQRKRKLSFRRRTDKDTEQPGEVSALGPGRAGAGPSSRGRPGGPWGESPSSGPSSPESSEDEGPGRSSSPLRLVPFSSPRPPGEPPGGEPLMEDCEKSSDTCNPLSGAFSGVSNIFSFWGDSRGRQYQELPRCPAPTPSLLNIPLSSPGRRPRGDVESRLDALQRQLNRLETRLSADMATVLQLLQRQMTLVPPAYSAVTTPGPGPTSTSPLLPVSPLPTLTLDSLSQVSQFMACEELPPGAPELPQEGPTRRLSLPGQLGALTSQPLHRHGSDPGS
hROMK (human Kir1.1), sequence (P48048 whole entry): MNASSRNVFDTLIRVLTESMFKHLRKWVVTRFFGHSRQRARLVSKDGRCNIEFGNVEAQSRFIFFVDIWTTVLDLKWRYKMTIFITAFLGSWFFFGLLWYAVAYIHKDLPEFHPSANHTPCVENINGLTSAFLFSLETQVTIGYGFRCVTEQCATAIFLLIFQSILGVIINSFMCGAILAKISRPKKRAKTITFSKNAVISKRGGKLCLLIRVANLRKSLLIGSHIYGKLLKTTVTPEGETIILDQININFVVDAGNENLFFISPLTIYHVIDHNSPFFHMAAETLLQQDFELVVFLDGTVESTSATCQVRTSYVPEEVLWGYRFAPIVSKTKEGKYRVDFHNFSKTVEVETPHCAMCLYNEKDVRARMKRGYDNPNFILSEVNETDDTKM

In the case of `COc1nn(-c2ccc(CN3CCN[C@H](c4ccc5c(c4C)COC5=O)C3)cn2)cc1C#N` [Example 223-I, (R)-3-methoxy-1-(5-((3-(4-methyl-1-oxo-1,3-dihydroisobenzofuran-5-yl)piperazin-1-yl)methyl)pyridin-2-yl)-1H-pyrazole-4-carbonitrile], at hERG channels, the inhibition at 1 µM was determined as 56%. At hROMK (human Kir1.1), the IC50 was 18 nM.
For the molecule `Cc1c([C@@H]2CN(Cc3ccc(-n4cc(C#N)nn4)nc3)CCN2)ccc2c1COC2=O` [Example 225-I, (R)-1-(5-((3-(4-methyl-1-oxo-1,3-dihydroisobenzofuran-5-yl)piperazin-1-yl)methyl)pyridin-2-yl)-1H-1,2,3-triazole-4-carbonitrile], the inhibition at 1 µM at hERG channels worked out at 39%. In addition, the IC50 on hROMK (human Kir1.1) came to 19 nM.
With `CCc1nn(-c2ccc(CN3CCN[C@H](c4ccc5c(c4C)COC5=O)C3)cn2)cc1C#N` [Example 226-I, (R)-3-ethyl-1-(5-((3-(4-methyl-1-oxo-1,3-dihydroisobenzofuran-5-yl)piperazin-1-yl)methyl)pyridin-2-yl)-1H-pyrazole-4-carbonitrile], the inhibition at 1 µM at hERG channels is 33%. Further, on hROMK (human Kir1.1), the 50% inhibitory concentration (IC50) was 14 nM.
In the case of `COc1nn(-c2ncc(CN3CCN[C@H](c4ccc5c(c4C)COC5=O)C3)cn2)cc1C#N` [Example 227-I, (R)-3-methoxy-1-(5-((3-(4-methyl-1-oxo-1,3-dihydroisobenzofuran-5-yl)piperazin-1-yl)methyl)pyrimidin-2-yl)-1H-pyrazole-4-carbonitrile], on hERG channels, the inhibition at 1 µM is 18%. Further, the IC50 on hROMK (human Kir1.1) was 28 nM.
As to `Cc1c([C@@H]2CN(Cc3cnc(-n4cc(C#N)c(C(F)F)n4)nc3)CCN2)ccc2c1COC2=O` [Example 229-I, (R)-3-(difluoromethyl)-1-(5-((3-(4-methyl-1-oxo-1,3-dihydroisobenzofuran-5-yl)piperazin-1-yl)methyl)pyrimidin-2-yl)-1H-pyrazole-4-carbonitrile], the inhibition at 1 µM on hERG channels came to 25%. Besides, the IC50 on hROMK (human Kir1.1) was found to be 21 nM.
For `Cc1cc(-n2cc(CN3CCN[C@H](c4ccc5c(c4C)COC5=O)C3)c(C(F)F)n2)ncc1C#N` [Example 233-I, (R)-6-(3-(difluoromethyl)-4-((3-(4-methyl-1-oxo-1,3-dihydroisobenzofuran-5-yl)piperazin-1-yl)methyl)-1H-pyrazol-1-yl)-4-methylnicotinonitrile], at hERG channels, the inhibition at 1 µM turned out to be 31%. Moreover, at hROMK (human Kir1.1), the IC50 came out at 22 nM.
Turning to `Cc1cc(-n2cc(CN3CCN[C@H](c4ccc5c(c4C)COC5=O)C3)c(C3CC3)n2)ncc1C#N` [Example 237-I, (R)-6-(3-cyclopropyl-4-((3-(4-methyl-1-oxo-1,3-dihydroisobenzofuran-5-yl)piperazin-1-yl)methyl)-1H-pyrazol-1-yl)-4-methylnicotinonitrile], the inhibition at 1 µM on hERG channels came to 37%. Moreover, the IC50 at hROMK (human Kir1.1) came to 69 nM.
`Cc1cc(-n2cc(CN3CCN[C@H](c4ccc5c(c4)COC5=O)C3)cn2)ncc1C#N` [Example 239-I, (R)-4-methyl-6-(4-((3-(1-oxo-1,3-dihydroisobenzofuran-5-yl)piperazin-1-yl)methyl)-1H-pyrazol-1-yl)nicotinonitrile]: the inhibition at 1 µM on hERG channels was determined as 18%. For the same molecule, the 50% inhibitory concentration (IC50) at hROMK (human Kir1.1) is 63 nM.
Regarding `Cc1nn(-c2ccc(CN3CCN[C@H](c4ccc5c(c4C)COC5=O)C3)nc2)cc1C#N` [Example 241-I, (R)-3-methyl-1-(6-((3-(4-methyl-1-oxo-1,3-dihydroisobenzofuran-5-yl)piperazin-1-yl)methyl)pyridin-3-yl)-1H-pyrazole-4-carbonitrile], on hERG channels, the inhibition at 1 µM came to 18%. For the same molecule, the IC50 at hROMK (human Kir1.1) was 41 nM.
With `Cc1cn(-c2ccc(CN3CCN[C@H](c4ccc5c(c4C)COC5=O)C3)cn2)nc1C#N` [Example 242-I, (R)-4-methyl-1-(5-((3-(4-methyl-1-oxo-1,3-dihydroisobenzofuran-5-yl)piperazin-1-yl)methyl)pyridin-2-yl)-1H-pyrazole-3-carbonitrile], the inhibition at 1 µM on hERG channels came to 36%. Further, the IC50 on hROMK (human Kir1.1) turned out to be 10 nM.
Turning to `Cc1cn(-c2ncc(CN3CCN[C@H](c4ccc5c(c4C)COC5=O)C3)cn2)nc1C#N` [Example 243-I, (R)-4-methyl-1-(5-((3-(4-methyl-1-oxo-1,3-dihydroisobenzofuran-5-yl)piperazin-1-yl)methyl)pyrimidin-2-yl)-1H-pyrazole-3-carbonitrile], the inhibition at 1 µM on hERG channels is 9.8%. The IC50 at hROMK (human Kir1.1) worked out at 13 nM.
Consider `Cc1cc(-n2cc(CN3CC[C@@H](O)[C@H](c4ccc5c(c4C)COC5=O)C3)c(C(F)F)n2)ncc1C#N` [Example 245-I, 6-(3-(difluoromethyl)-4-(((3R,4R)-4-hydroxy-3-(4-methyl-1-oxo-1,3-dihydroisobenzofuran-5-yl)piperidin-1-yl)methyl)-1H-pyrazol-1-yl)-4-methylnicotinonitrile], for which the inhibition at 1 µM on hERG channels was found to be 17%. In addition, the IC50 on hROMK (human Kir1.1) came to 18 nM.
For the molecule `Cc1c([C@@H]2CN(Cc3cnn(-c4cccc(N5CCOC5=O)n4)c3)C[C@H](C)N2)ccc2c1COC2=O` [Example 249-I, 3-(6-(4-(((3S,5R)-3-methyl-5-(4-methyl-1-oxo-1,3-dihydroisobenzofuran-5-yl)piperazin-1-yl)methyl)-1H-pyrazol-1-yl)pyridin-2-yl)oxazolidin-2-one], the inhibition at 1 µM at hERG channels worked out at 9.1%. Besides, the 50% inhibitory concentration (IC50) on hROMK (human Kir1.1) is 120 nM.
`Cc1cc(-n2cc(CN3CC[C@@H](O)[C@H](c4ccc5c(c4C)COC5=O)C3)n(C)c2=O)ncc1C#N` [Example 250-I, 6-(4-(((3R,4R)-4-hydroxy-3-(4-methyl-1-oxo-1,3-dihydroisobenzofuran-5-yl)piperidin-1-yl)methyl)-3-methyl-2-oxo-2,3-dihydro-1H-imidazol-1-yl)-4-methylnicotinonitrile]: the inhibition at 1 µM at hERG channels came out at 20%. Moreover, on hROMK (human Kir1.1), the IC50 was 27 nM.
For the molecule `Cc1cc(N2CCOC2=O)cc(-n2cc(CN3C[C@@H](c4ccc5c(c4C)COC5=O)N[C@@H](C)C3)cn2)n1` [Example 251-I, 3-(2-methyl-6-(4-(((3S,5R)-3-methyl-5-(4-methyl-1-oxo-1,3-dihydroisobenzofuran-5-yl)piperazin-1-yl)methyl)-1H-pyrazol-1-yl)pyridin-4-yl)oxazolidin-2-one], the inhibition at 1 µM at hERG channels came to 7.6%. For the same molecule, the IC50 on hROMK (human Kir1.1) is 61 nM.
Consider `Cc1c([C@@H]2CN(Cc3cnn(-c4cccc(N(C)S(C)(=O)=O)n4)c3)C[C@H](C)N2)ccc2c1COC2=O` [Example 252-I, N-methyl-N-(6-(4-(((3S,5R)-3-methyl-5-(4-methyl-1-oxo-1,3-dihydroisobenzofuran-5-yl)piperazin-1-yl)methyl)-1H-pyrazol-1-yl)pyridin-2-yl)methanesulfonamide], for which the inhibition at 1 µM on hERG channels turned out to be 8.8%. Further, the concentration for half-maximal inhibition (IC50) on hROMK (human Kir1.1) was 72 nM.
Consider `Cc1cc(-c2nc(CN3C[C@@H](c4ccc5c(c4C)COC5=O)N[C@@H](C)C3)no2)ncc1C#N` [Example 259-I, 4-methyl-6-(3-(((3S,5R)-3-methyl-5-(4-methyl-1-oxo-1,3-dihydroisobenzofuran-5-yl)piperazin-1-yl)methyl)-1,2,4-oxadiazol-5-yl)nicotinonitrile], for which, at hERG channels, the inhibition at 1 µM came out at 8.6%. Besides, the IC50 at hROMK (human Kir1.1) amounted to 53 nM.
Taken in the same sequence, the figures for `Cc1cc(-n2nnc(CN3C[C@@H](c4ccc5c(c4C)COC5=O)N[C@@H](C)C3)n2)ccc1C#N` [Example 265-I, 2-methyl-4-(5-(((3S,5R)-3-methyl-5-(4-methyl-1-oxo-1,3-dihydroisobenzofuran-5-yl)piperazin-1-yl)methyl)-2H-tetrazol-2-yl)benzonitrile] were 20% and 22 nM.
